# System: MM.1S cells
# Assay: Inhibitory effect on the proliferation of MM.1S, MTS cell viability test
# Format: cell-based
# Details: Homo sapiens, MM1.S, 168 h, multiple myeloma MM.1S cells, 7 days incubation, read-out: Tumor cell inhibitory activity
# In short: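 MM.1S cells (20,000/well, RPMI 1640 with 10% FBS) exposed to 5-fold compound dilutions at 0.2% DMSO for 7 days at 37° C, 5% CO2. MTS added for 3-4 h; OD490-OD690 gave inhibition versus DMSO, IC50 fitted, mean of three experiments.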
row,SMILES,IC50 [nM]
1,"O=C1CCC(N2Cc3c(OCCCN4CCN(c5cccc(Cl)c5Cl)CC4)cccc3C2=O)C(=O)N1 (centres unmarked) [Example 238, 3-(4-(3-(4-(2,3-dichlorophenyl)piperazine-1-yl)propoxy)-1-oxoisoindoline-2-yl)piperidine-2,6-dione]",100 to 1000
2,"O=C1CCC(N2Cc3c(OCCCCNC(=O)N4CCN(c5cccc(Cl)c5Cl)CC4)cccc3C2=O)C(=O)N1 (centres unmarked) [Example 33, 4-(2,3-dichlorophenyl)-N-(4-((2-(2,6-dioxopiperidine-3-)-1-oxoisoindoline-4-)oxy)butyl)piperazine-1-carboxamide]",< 100
3,"COCCOc1ccc(C2(C#N)CCN(CCCCCc3cccc4c3CN(C3CCC(=O)NC3=O)C4=O)CC2)cc1 (centres unmarked) [Example 264, 1-(5-(2-(2,6-dioxopiperidin-3-yl)-1-oxoisoindolin-4-yl)pentyl)-4-(4-(2-methoxyethoxy)phenyl)piperidine-4-carbonitrile]",100 to 1000
4,"O=C1CCC(N2Cc3c(CCCCN4CCN(c5c(Cl)cccc5Cl)CC4)cccc3C2=O)C(=O)N1 (centres unmarked) [Example 48, 3-(4-(4-(4-(2,6-dichlorophenyl)piperazine-1-)butyl)-1-oxoisoindoline-2-)piperidine-2,6-dione]",< 100
5,"O=C1CCC(N2Cc3c(CCCCCN4CCc5ccccc5C4)cccc3C2=O)C(=O)N1 (centres unmarked) [Example 113, 3-(4-(5-(3,4-dihydroisoquinoline-2(1H)-)pentyl)-1-oxoisoindoline-2-)piperidine-2,6-dione]",100 to 1000
6,"O=C1CCC(N2Cc3c(CCCCCN4CCCCc5ccccc54)cccc3C2=O)C(=O)N1 (centres unmarked) [Example 111, 3-(1-oxo-4-(5-(2,3,4,5-tetrahydro-TH-benzo[b]azepine-1-)pentyl)isoindoline-2-)piperidine-2,6-dione]",100 to 1000
7,"O=C1CCC(N2Cc3c(CCCCN4CCN(c5ccccc5F)CC4)cccc3C2=O)C(=O)N1 (centres unmarked) [Example 218, 3-(4-(4-(4-(2-fluorophenyl)piperazine-1-yl)butyl)-1-oxoisoindoline-2-yl)piperidine-2,6-dione]",< 100
8,"O=C1CCC(N2Cc3c(CCCCCN4CCN(c5ccc(Cl)cc5Cl)CC4)cccc3C2=O)C(=O)N1 (centres unmarked) [Example 236, 3-(4-(5-(4-(2,4-dichlorophenyl)piperazine-1-yl)pentyl)-1-oxoisoindoline-2-yl)piperidine-2,6-dione]",1000 to 20000
9,"O=C1CCC(N2Cc3c(CCCCN4CCN(c5nsc6ccccc56)CC4)cccc3C2=O)C(=O)N1 (centres unmarked) [Example 230, 3-(4-(4-(4-(benzisothiazol-3-yl)piperazine-1-yl)butyl)-1-oxoisoindoline-2-yl) piperidine-2,6-dione]",1000 to 20000
10,"CC1CCc2cc(F)ccc2N1CCCCCc1cccc2c1CN(C1CCC(=O)NC1=O)C2=O (centres unmarked) [Example 104, 3-(4-(5-(6-fluoro-2-methyl-3,4-dihydroquinoline-1(2H))pentyl)-1-oxoisoindoline-2-) piperidine-2,6-dione]",100 to 1000
11,"N#CC1(c2ccc(Cl)cc2)CCN(CCCCOc2cccc3c2CN(C2CCC(=O)NC2=O)C3=O)CC1 (centres unmarked) [Example 77, 4-(4-chlorophenyl)-1-(4-((2-(2,6-dioxopiperidine-3-)-1-oxoisoindoline-4-)oxy)butyl)piperidine-4-carbonitrile]",100 to 1000
12,"N#CC1(c2cccc(OC(F)(F)F)c2)CCN(CCCCc2cccc3c2CN(C2CCC(=O)NC2=O)C3=O)CC1 (centres unmarked) [Example 97, 1-(4-(2-(2,6-dioxopiperidine-3-)-1-oxoisoindoline-4-)butyl)-4-(3-trifluoromethoxyphenyl) piperidine-4-carbonitrile]",< 100
13,"O=C1CCC(N2Cc3c(OCCCCOc4ccnc5ccccc45)cccc3C2=O)C(=O)N1 (centres unmarked) [Example 6, 3-(1-oxo-4-(4-(quinoline-4-oxy)butoxy)isoindoline-2-)piperidine-2,6-dione]",< 100
14,O=C1CCC(N2Cc3c(CCCCCN4CCCc5cc(Cl)ccc54)cccc3C2=O)C(=O)N1 (centres unmarked) [Example 115],100 to 1000
15,"O=C1CCC(N2Cc3c(OCCCCCCN4CCC5(CC4)COc4ccccc45)cccc3C2=O)C(=O)N1 (centres unmarked) [Example 148, 3-(4-((6-(2H-spiro[benzofuran-3,4′-piperidine]-1′-)hexyl)oxy)-1-oxoisoindoline-2-)piperidine-2,6-dione]",< 100
16,"N#CC1(c2ccc(OC(F)(F)F)cc2Cl)CCN(CCCCCc2cccc3c2CN(C2CCC(=O)NC2=O)C3=O)CC1 (centres unmarked) [Example 258, 4-(2-chloro-4-(trifluoromethoxy)phenyl)-1-(5-(2-(2,6-dioxopiperidin-3-yl)-1-oxoisoindolin-4-yl)pentyl)piperidine-4-carbonitrile]",100 to 1000
17,"CC(=O)N[C@@H](CCCc1cccc2c1CN(C1CCC(=O)NC1=O)C2=O)C(=O)NCc1cccc(Cl)c1 (stereo partly drawn) [Example 184, (2S)-2-acetylamino-N-(3-chlorobenzyl)-5-(2-(2,6-dioxopiperidine-3-)-1-oxoisoindoline-4-)pentanamide]",100 to 1000
18,"Cc1ccc(NC(=O)CCCCOc2cccc3c2CN(C2CCC(=O)NC2=O)C3=O)cc1Cl (centres unmarked) [Example 159, N-(3-chloro-4-methylphenyl)-5-((2-(2,6-dioxopiperidine-3-)-1-oxoisoindoline-4-)oxy)valeramide]",< 100
19,"O=C1CCC(N2Cc3c(OCCCOc4ccnc5ccccc45)cccc3C2=O)C(=O)N1 (centres unmarked) [Example 4, 3-(1-oxo-4-(3-(quinoline-4-oxy)propoxy)isoindoline-2-)piperidine-2,6-dione]",1000 to 20000
20,"O=C1CCC(N2Cc3c(CCCCCN4CCC5(C=Cc6ccccc65)CC4)cccc3C2=O)C(=O)N1 (centres unmarked) [Example 141, 3-(1-oxo-4-(5-(spiro[indene-1,4′-piperidine]-1′-)pentyl)isoindoline-2-)piperidine-2,6-dione]",100 to 1000
21,"N[C@@H](CCCc1cccc2c1CN(C1CCC(=O)NC1=O)C2=O)c1nc2cccc(Br)c2[nH]1 (stereo in doubt) [Example 195, 3-(4-((S)-4-amino-4-(7-bromo-1H-benzo[d]imidazole-2-)butyl)-1-oxoisoindoline-2-)piperidine-2,6-dione]",100 to 1000
22,"O=C1CCC(N2Cc3c(CCCCCCN4CCC5(CC4)OCc4ccc(Cl)cc45)cccc3C2=O)C(=O)N1 (centres unmarked) [Example 120, 3-(4-(6-(6-chloro-3H-spiro[isobenzofuran-1,4′-piperidine]-1′-)hexyl)-1-oxoisoindoline-2-)piperidine-2,6-dione]",< 100
23,O=C1CCC(N2Cc3c(OCCNC(=O)Nc4ccc(Cl)c(Cl)c4)cccc3C2=O)C(=O)N1 (centres unmarked) [Example 163],100 to 1000
24,"Cc1cc(C)c(C2(C#N)CCN(CCCCc3cccc4c3CN(C3CCC(=O)NC3=O)C4=O)CC2)c(C)c1 (centres unmarked) [Example 261, 1-(4-(2-(2,6-dioxopiperidin-3-yl)-1-oxoisoindolin-4-yl)butyl)-4-sym-trimethylphenylpiperidine-4-carbonitrile]",1000 to 20000
25,"N#CC1(c2cccc(Cl)c2)CCN(C(=O)CCCCOc2cccc3c2CN(C2CCC(=O)NC2=O)C3=O)CC1 (centres unmarked) [Example 87, 4-(3-chlorophenyl)-1-(5-((2-(2,6-dioxopiperidine-3-)-1-oxoisoindoline-4-)oxy)valeryl)piperidine-4-carbonitrile]",< 100
26,"O=C1CCC(N2Cc3c(OCCCCC(=O)N4CCN(c5cccc(Cl)c5Cl)CC4)cccc3C2=O)C(=O)N1 (centres unmarked) [Example 31, 3-(4-((5-(4-(2,3-dichlorophenyl)piperazine-1-)-5-oxopentyl)oxy)-1-oxopentyl-2-)piperidine-2,6-dione]",< 100

# Reference: patent US12459921B2, “Isoindoline compound, preparation method, pharmaceutical composition and use thereof” (SHANGHAI INSTITUTE OF MATERIA MEDICA, CHINESE ACADEMY OF …, priority 2018, dated 2025)
